Literature values in patent US10123974B2, “Sustained release formulation of a non-steroidal anti-inflammatory drug” (PACIRA PHARMACEUTICALS, INC., priority 2010, dated 2018).

Settings: chronic 100 mg/day systemic dosing

O=C(O)Cc1ccccc1Nc1c(Cl)cccc1Cl [diclofenac]
synovial fluid levels: ≤ 200 ng/mL
